Assay results from patent US11819533B2, “Compositions and methods for the treatment of fungal infections” (Cidara Therapeutics, Inc., priority 2017, dated 2023).
Starred links: 1 amine or outer side, 2 acyl side, 3 side chain; linkers in the order of their positions; H or OH if unused. Positions of bridges follow the written chain, without caps; N, C: chain ends. Non-standard residues stand in square brackets, D forms with d. Residues, ends and D or L forms follow the SMILES beside them. *: point of attachment. Orn(4R-OH,5R-OCH2CH2NMe3+) = C[N+](C)(C)CCO[C@@H](N[*:3])[C@H](O)C[C@H](N[*:1])C(=O)[*:2]; pTerphenylCO(4''-OnC5H11) = CCCCCOc1ccc(-c2ccc(-c3ccc(C(=O)*)cc3)cc2)cc1; hTyr(3S-OH,4S-OH) = N[C@H](C(=O)O)[C@H](O)[C@@H](O)c1ccc(O)cc1; Pro(3S-OH,4S-Me) = C[C@H]1CN[C@H](C(=O)O)[C@H]1O; Hyp = O=C(O)[C@@H]1C[C@@H](O)CN1

Test system: Sprague Dawley rats
Assay: 14-day repeat-dose intravenous infusion toxicity study
Format: in vivo
Settings: for Animals that did not receive ten consecutive days of treatment (Days 5-14): females
Method: The primary purpose of this study was to evaluate the toxicity of CD101 when administered intravenously as a 20-minute infusion into the lateral tail vein of Sprague Dawley rats for fourteen consecutive days. A positive control group (Eraxis®) with a similar structure and pharmacodynamic activity was included in the study design.
The test article, CD101 acetate, was a white to off-white powder. The test article was prepared into dosing formulations for intravenous dose administration. One hundred experimentally naïve Sprague Dawley rats (50 males and 50 females), a minimum of 8 weeks old and weighing 255-318 grams (males) and 192-215 (females) at the outset of the study were assigned to treatment groups as shown in Table 7 below:
All animals were dosed on Days 1 through 3 inclusive. As a result of tail vein irritation observed among all study groups, dose administration was suspended on Day 4 to allow the tails to recover. Dosing resumed on Day 5 and continued for a maximum of ten additional days (Days 5 through 14 inclusive). Animals that could no longer be dosed during this time remained on study.
Male and female Sprague Dawley rats were to receive CD101 acetate at doses of 0, 2, 6 and 20 mg/kg/day (Groups 1, 3, 4 and 5, respectively) or Eraxis® (the positive control article, Group 2) at a dose of 40 mg/kg/day, intravenously as a 20 minute infusion into the left or right lateral tail vein for fourteen consecutive days. During the first three treatment days, all animals were dosed with the first vehicle used on this study (1.75% Tween 80/5% Dextrose: Groups 1 and 3-5; 5% Dextrose: Group 2). As a result of the localized tail swelling observed during the first three days of treatment, study Day 4 served as a drug-free day to alleviate tail vein irritation. Dose administration resumed on Day 5 using a new vehicle (5% Mannitol/2.5% Tween 80/0.3% acetic acid: Groups 1 and 3-5; 5% Mannitol/0.3% acetic acid: Group 2) for the remainder of the treatment period (Days 5-14). Those animals that could no longer be dosed because of severe vein irritation were retained on study, untreated, until the end of the study (Day 15).

## CCCCCOc1ccc(-c2ccc(-c3ccc(C(=O)N[C@H]4C[C@@H](O)[C@@H](OCC[N+](C)(C)C)NC(=O)[C@@H]5[C@@H](O)[C@@H](C)CN5C(=O)[C@H]([C@@H](C)O)NC(=O)[C@H]([C@H](O)[C@@H](O)c5ccc(O)cc5)NC(=O)[C@@H]5C[C@@H](O)CN5C(=O)[C@H]([C@@H](C)O)NC4=O)cc3)cc2)cc1 [CD101 acetate] ({pTerphenylCO(4''-OnC5H11)}-[Orn(4R-OH,5R-OCH2CH2NMe3+)]T[Hyp][hTyr(3S-OH,4S-OH)]T[Pro(3S-OH,4S-Me)]; lactam 1-C)
Days 1-3, first vehicle (1.75% Tween 80 and 5% Dextrose for CD101 acetate; 5% Dextrose for Eraxis), Eraxis 40 mg/kg/day, CD101 acetate 6 and 20 mg/kg/day, males and females
  Incidence of tail vein irritation: highest
Days 5-14, second vehicle (5% Mannitol, 2.5% Tween 80, 0.3% Acetic Acid for CD101 acetate; 5% Mannitol and 0.3% Acetic Acid for Eraxis), Eraxis 40 mg/kg/day, CD101 acetate 20 mg/kg/day
  Vein irritation compared to Groups 1, 3 and 4: only marginally higher
High dose 20 mg/kg/day (Group 5), second vehicle 5% Mannitol/2.5% Tween 80/0.3% acetic acid
  Animals that did not receive ten consecutive days of treatment (Days 5-14): 90%
Low dose 2 mg/kg/day (Group 3), second vehicle 5% Mannitol/2.5% Tween 80/0.3% acetic acid
  Animals that did not receive ten consecutive days of treatment (Days 5-14): 10%
mid-dose 6 mg/kg/day (Group 4), second vehicle 5% Mannitol/2.5% Tween 80/0.3% acetic acid
  Animals that did not receive ten consecutive days of treatment (Days 5-14): 10%
males, high dose 20 mg/kg/day (Group 5), second vehicle 5% Mannitol/2.5% Tween 80/0.3% acetic acid
  Animals dosed for less than the intended ten-day duration (Days 5-14) as a result of tail swelling/lesions: 30%
